Measurements taken from patent US7879344B2, “Transdermal delivery of oleocanthal for relief of inflammation” (Kimberly-Clark Worldwide, Inc., priority 2006, dated 2011).

Key:
[1] = phenolic group of oleocanthal; carboxylic acid group of ibuprofen and similar NSAIDs; cited from earlier work
[2] = solubility in fats and oils (stated in the text, no test described); type: physicochemical; settings: "it has been discovered", no data given
Text: Traditionally, it has been difficult to administer ibuprofen and other similar NSAIDs transdermally. […] This is particularly problematic for transdermal administration, given the high concentration of lipids in the stratum corneum. Consequently, formulating a transdermal ibuprofen-containing composition that is capable of penetrating through the stratum corneum in effective amounts is difficult.
Without wishing to be bound to any particular theory, it is believed that the ability of oleocanthal to remain in a neutral state over a broad pH range contributes to the ability of oleocanthal to more readily penetrate the stratum corneum, as compared to ibuprofen and similar NSAIDs. […] This is advantageous for transdermal delivery. Since most transdermal compositions are formulated to have a pH of from about 3.5 to about 8.5, and more typically from about 5.0 to about 6.0, oleocanthal will mostly be in its neutral, non-ionized state when the transdermal composition is contacted with skin. In contrast, ibuprofen and similar NSAIDs, which contain a carboxylic acid group that may begin to ionize at a pH of about 4.0, will be all or partly in their ionized state (and thus […]) when the transdermal composition is contacted with skin. Consequently, oleocanthal penetrates the stratum corneum more readily than ibuprofen and other similar NSAIDs.

Row | solubility in fats and oils [2] | SMILES | pH at which the ionisable group begins to ionize [1]
1 | – | CC(C)Cc1ccc(C(C)C(=O)O)cc1 (stereo not drawn) [ibuprofen, reference compound] | about 4.0 pH
2 | highly soluble | C/C=C(/C=O)[C@@H](CC=O)CC(=O)OCCc1ccc(O)cc1 [oleocanthal] | about 9.5 pH
